Experimental data as given in US20180186796A1, “COMPOUNDS AND USES THEREOF” (LEAD DISCOVERY SIENA S.R.L., priority 2014, published 2018).
≈ marks a conversion by molar mass, not a printed value. Counter-ions that a name gives are not always drawn. Like-named read-outs stand apart in the source and are kept apart here.

Tests used:
Recombinant human Src = biological target: T1, Recombinant human Src (Homo sapiens, UniProt P12931); experiment: Enzymatic assay on isolated Src; assay type: biochemical
T1 construct: purchased Upstate (Lake Placid, N.Y.)
Text: Recombinant human Src was purchased from Upstate (Lake Placid, N.Y.).

[1] = Microsomal stability assay; details: for Metabolic Stab.: percentage of unmodified parent drug, human liver microsomes 60 min
Water solubility assay = details: for H2O Solubility: Table 6; for solubility at 24 h / solubility thermodynamic at 24 h: water, 20 °C, thermodynamic from solid
Experimental: Each solid compound (1 mg) was added to 1 mL of water. […] The suspensions were filtered through a 0.45 μm nylon filter (Acrodisc), and the solubilized compound determined by LC-MS-MS assay. For each compound the determination was performed in triplicate. […] The flow rate was 0.2 mL min-^−1 and injection volume was 5 μL. The instrument operated in positive mode and parameters were: detector 1850 V, drying gas pressure 25.0 psi, desolvation temperature 300.0° C., nebulizing gas 40.0 psi, needle 5000 V and shield 600 V. Nitrogen was used as nebulizer gas and drying gas.
Solid compound (1 mg) was added to 1 mL of water. […] The suspensions were filtered through a 0.45-μm nylon filter (Acrodisc), and the solubilised compound determined by LC-UV-MS assay. The determination was performed in triplicate.
Chromatographic analysis was performed with the method above reported and quantification of compounds was made by comparison with apposite calibration curves realized with standard solutions in methanol.

[2] = PAMPA, intestinal (GI) permeability; details: for Papp / Papp at 5 h, 0.5 mM: PAMPA; for Papp: Table 6; for PAMPA GI (MR %): Membrane Retention; for Papp at 5 h, 0.5 mM: pH 7.4
Experimental: (§1) Donor solution (0.5 mM) was prepared by diluting 1 mM dimethylsulfoxide (DMSO) compound stock solution using phosphate buffer (pH 7.4, 0.025 M). […] Donor solution (150 μL) was added to each well of the filter plate. To each well of the acceptor plate were added 300 μL of solution (50% DMSO in phosphate buffer). All compounds were tested in three different plates on different days. The sandwich was incubated for 5 h at room temperature under gentle shaking. After the incubation time, the plates were separated, and samples were taken from both receiver and donor sides and analyzed using LC with UV detection at 280 nm.
(§2) Permeability (Papp) for PAMPA was calculated according to the following equation, obtained from Wohnsland and Faller^27 and Sugano et al.^28 equation with some modification in order to obtain permeability values in cm s^−1,
(§3) Drug concentration is estimated by using the peak area integration. Membrane retentions (%) were calculated according to the following equation:
(§4) where r is the ratio between drug concentration in the acceptor and equilibrium concentration, D, A, and Eq represented drug concentration in the donor, acceptor and equilibrium solution, respectively.
(§5) Donor solution of tested compounds (0.5 mM) was prepared by diluting 1 mM dimethylsulfoxide (DMSO) compound stock solution using phosphate buffer (pH 7.4, 25 mM). […] Donor solution (150 μL) was added to each well of the filter plate. To each well of the acceptor plate were added 300 μL of solution (50% DMSO in phosphate buffer). Compounds was tested in three different plates on different days. The sandwich was incubated for 5 h at room temperature under gentle shaking.
(§6) Permeability (Papp) for PAMPA was calculated according to the following equation, obtained from Wohnsland and Faller and Sugano et al.^27, 28.
(§7) Drug concentration is estimated by using the peak area integration. Membrane retention (%) was calculated according to the following equation:

Recombinant human Abl = biological target: T2, Recombinant human Abl (Homo sapiens, UniProt P00519); experiment: Enzymatic assay on isolated Abl; assay type: biochemical; details: mean of at least two experiments
T2 construct: purchased Upstate
Experimental: Recombinant human Abl was purchased from Upstate.
Activity was measured in a filter binding assay using an Abl specific peptide substrate (Abtide, Upstate).

PAMPA, BBB permeability = details: for PAMPA BBB (MR %): Membrane Retention; for Papp at 5 h, 0.5 mM: PAMPA, pH 7.4
Experimental: as §1, §2, §3, §4, §5, §6, §7

[3] = Stability tests in phosphate buffer and methanol; assay type: physicochemical; details: 20° C., 48 h incubation
[4] = Enzymatic stability in human plasma; assay type: in vitro ADME; details: for half-life at 100 μM: human, pooled human plasma diluted with phosphate buffer, pH 7.4
recombinant Fyn = recombinant Fyn (Homo sapiens, UniProt P06241); experiment: Enzymatic assay on isolated Fyn kinase
Experimental: Kinase assays were performed in presence of 200 μM ATP and 100 μM peptide substrate. All inhibition assays were conducted with 0.01 μg active kinase, 0.33 μmol [^γ32P]ATP, 60 mM HEPES-NaOH pH 7.5, 3 μM Na-orthovanadate, 1.2 mM DTT, 50 μg/ml PEG20.0000, 10 mM magnesium acetate, 0.004% NP40 and 10% DMSO in a final volume of 10 μL. Fyn and inhibitors were preincubated in ice for 5 min; after addition of the substrates the reaction was conducted at 30° C. for 10 min. The reaction was stopped by adding 5 μL of 3% phosphoric acid. Aliquots (10 μL) were then transferred into a P30 Filtermat (PerkinElmer), washed five times with 75 mM phosphoric acid and once with acetone for 5 minute. The filter was dried and transferred to a sealable plastic bag, and scintillation cocktail (4 mL) was added. Spotted reactions were read in a MicroBeta Liquid (Perkinelmer) scintillation counter. The ID50 values were obtained according to the following equation:
Ki values toward recombinant Fyn were calculated using the equation:
according to a competitive mechanism of inhibition toward ATP substrate, where [SATP] is the concentration of ATP. Curve fitting was performed with the program GraphPad Prism version 5.00.

K562 cells = experiment: Antiproliferative activity on human cell line K562; assay type: cell-based; details: Homo sapiens, K562, read-out: Cellular Data (IC50, μM) K562
Experimental: In vitro experiments were carried out using the human Chronic Myelogeneous Leukemia cell line K562. Cells were purchased from American Type Culture Collection (ATCC, Manassas, Va., USA) and were cultured in RPMI medium supplemented with 10% Foetal Bovine Serum. […] Cell number and vitality were evaluated using the automatic cell counter NucleoCounteri (Chemometec, Denmark). Results from the NucleoCounter represented either total or non-viable cell concentration, depending on the sample preparation indicated by manufacturer.
In vitro experiments were carried out using the human Chronic Myelogeneous Leukemia cell line K562. Cells were purchased from American Type Culture Collection (ATCC, Manassas, Va., USA) and were cultured in RPMI medium supplemented with 10% Foetal Bovine Serum. […] Cell number and vitality were evaluated using the automatic cell counter NucleoCounter® (Chemometec, Denmark). Results from the NucleoCounter represented either total or non-viable cell concentration, depending on the sample preparation indicated by manufacturer.

[5] = mean of at least two experiments, read-out: Enzymatic Data (Ki, μM) c-Src
[6] = methanol, read-out: Stability MeOH t1/2
[7] = phosphate buffer, pH 7.4, read-out: Stability PBS pH 7.4 t1/2
[8] = 37° C., read-out: Stability Human Plasma t1/2 (converted)
[9] = read-out: t1/2 in human plasma (converted)

recombinant Fyn, sequence (P06241 whole entry, looked up): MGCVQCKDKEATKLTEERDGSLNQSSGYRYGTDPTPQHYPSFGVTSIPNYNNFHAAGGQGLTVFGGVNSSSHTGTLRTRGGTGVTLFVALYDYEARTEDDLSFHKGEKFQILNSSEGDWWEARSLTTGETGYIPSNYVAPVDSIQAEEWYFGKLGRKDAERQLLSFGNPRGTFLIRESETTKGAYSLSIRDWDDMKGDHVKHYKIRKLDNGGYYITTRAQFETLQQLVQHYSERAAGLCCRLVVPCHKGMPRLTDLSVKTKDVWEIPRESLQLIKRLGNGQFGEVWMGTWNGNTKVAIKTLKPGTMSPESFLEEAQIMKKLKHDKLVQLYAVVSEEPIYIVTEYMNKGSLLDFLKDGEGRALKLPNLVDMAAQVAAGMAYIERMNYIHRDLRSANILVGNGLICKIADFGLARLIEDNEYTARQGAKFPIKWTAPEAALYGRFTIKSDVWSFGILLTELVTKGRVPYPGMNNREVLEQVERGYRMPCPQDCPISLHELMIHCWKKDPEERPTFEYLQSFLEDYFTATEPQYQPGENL
T1 sequence (P12931 whole entry): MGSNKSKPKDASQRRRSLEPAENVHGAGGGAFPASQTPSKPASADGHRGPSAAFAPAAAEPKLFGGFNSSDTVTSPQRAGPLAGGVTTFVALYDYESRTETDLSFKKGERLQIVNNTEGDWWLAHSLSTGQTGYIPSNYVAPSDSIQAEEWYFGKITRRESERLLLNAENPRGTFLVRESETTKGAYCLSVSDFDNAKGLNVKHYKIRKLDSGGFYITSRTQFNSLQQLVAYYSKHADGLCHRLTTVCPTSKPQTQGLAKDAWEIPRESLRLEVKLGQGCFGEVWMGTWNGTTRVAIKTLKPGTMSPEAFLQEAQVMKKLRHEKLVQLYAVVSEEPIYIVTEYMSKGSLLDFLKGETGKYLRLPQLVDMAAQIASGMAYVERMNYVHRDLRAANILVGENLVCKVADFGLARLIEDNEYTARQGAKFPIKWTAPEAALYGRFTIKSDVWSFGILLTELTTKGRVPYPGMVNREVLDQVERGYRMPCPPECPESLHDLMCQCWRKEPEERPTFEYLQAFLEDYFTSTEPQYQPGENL
T2 sequence (P00519 whole entry): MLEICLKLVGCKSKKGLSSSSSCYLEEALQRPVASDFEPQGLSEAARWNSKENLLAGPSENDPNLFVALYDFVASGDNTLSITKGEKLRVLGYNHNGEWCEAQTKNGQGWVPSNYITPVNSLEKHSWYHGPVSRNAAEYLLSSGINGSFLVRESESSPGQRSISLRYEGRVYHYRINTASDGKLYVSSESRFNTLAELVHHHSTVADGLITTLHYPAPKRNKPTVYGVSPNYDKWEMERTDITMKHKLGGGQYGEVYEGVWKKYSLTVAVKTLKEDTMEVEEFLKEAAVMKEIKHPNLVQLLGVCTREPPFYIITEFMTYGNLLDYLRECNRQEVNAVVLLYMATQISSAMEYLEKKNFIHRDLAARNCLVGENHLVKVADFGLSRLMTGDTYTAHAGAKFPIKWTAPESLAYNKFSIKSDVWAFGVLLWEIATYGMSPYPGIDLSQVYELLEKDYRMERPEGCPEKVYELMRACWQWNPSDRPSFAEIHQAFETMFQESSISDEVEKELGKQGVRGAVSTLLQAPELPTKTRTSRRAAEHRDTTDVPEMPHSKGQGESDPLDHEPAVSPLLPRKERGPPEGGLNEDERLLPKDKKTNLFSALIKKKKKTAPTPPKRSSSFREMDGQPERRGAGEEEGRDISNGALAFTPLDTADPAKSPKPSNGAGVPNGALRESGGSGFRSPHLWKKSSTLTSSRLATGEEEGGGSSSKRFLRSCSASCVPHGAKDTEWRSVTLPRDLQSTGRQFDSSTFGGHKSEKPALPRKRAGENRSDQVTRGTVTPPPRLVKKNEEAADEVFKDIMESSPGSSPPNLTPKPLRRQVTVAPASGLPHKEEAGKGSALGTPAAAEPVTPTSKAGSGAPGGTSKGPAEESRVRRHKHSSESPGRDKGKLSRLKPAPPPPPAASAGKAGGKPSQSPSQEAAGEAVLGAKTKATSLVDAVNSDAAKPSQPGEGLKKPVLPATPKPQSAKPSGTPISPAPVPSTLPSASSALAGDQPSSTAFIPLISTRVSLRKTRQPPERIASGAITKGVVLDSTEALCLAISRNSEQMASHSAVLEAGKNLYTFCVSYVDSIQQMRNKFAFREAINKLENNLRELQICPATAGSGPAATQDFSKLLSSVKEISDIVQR

SMILES | PAMPA BBB (MR %) (PAMPA, BBB permeability) | Papp at 5 h, 0.5 mM (PAMPA, BBB permeability) [×10⁻⁶ cm/s] | solubility at 24 h (Water solubility assay) [µM] | solubility thermodynamic at 24 h (Water solubility assay) [µg/mL] | half-life at 500 μM [3, 6] [h] | half-life at 500 μM [3, 7] [h] | PAMPA GI (MR %) [2] | Papp at 5 h, 0.5 mM [2] [×10⁻⁶ cm/s] | Ki (Recombinant human Abl) [µM] | melting point [°C] | also measured
Clc1cccc(Nc2nc(SCCN3CCOCC3)nc3c2cnn3CC(Cl)c2ccccc2)c1 (centres unmarked) [Si181, 1-(2-chloro-2-phenylethyl)-N-(3-chlorophenyl)-6-((2-morpholinoethyl)thio)-1H-pyrazolo[3,4-d]pyrimidin-4-amine, reference compound] |  |  |  |  |  |  |  |  | 0.12 |  | Ki (Recombinant human Src; [5]): 0.19 µM; Metabolic Stab. [1]: 95%; H2O Solubility (Water solubility assay): 0.1 µg/mL; Papp [2]: 9.5 10^−6 cm/sec
CCC(C)Sc1nc(NCc2ccccc2)c2cnn(CC(Cl)c3ccccc3)c2n1 (centres unmarked) [Si146, N-benzyl-6-(sec-butylthio)-1-(2-chloro-2-phenylethyl)-1H-pyrazolo[3,4-d]pyrimidin-4-amine] |  |  |  |  |  |  |  |  |  | 112 to 113 | 
Fc1cccc(Nc2nc(SC3CCCC3)nc3c2cnn3CC(Cl)c2ccccc2)c1 (centres unmarked) [drawing 179] |  |  |  |  |  |  |  |  | > 100 |  | Ki (Recombinant human Src; [5]): 0.11 µM; Metabolic Stab. [1]: 95%; Papp [2]: 14 10^−6 cm/sec
Fc1ccc(CCn2ncc3c(Nc4cccc(Cl)c4)nc(SCCN4CCOCC4)nc32)cc1 [Si327, N-(3-Chlorophenyl)-1-[2-(4-fluorophenyl)ethyl]-6-[(2-morpholin-1-ylethyl)thio]-1H-pyrazolo[3,4-d]pyrimidin-4-amine] |  |  |  |  |  |  |  |  |  | 127 to 128 | Ki (Recombinant human Src; read-out: Ki c-Src): ~0.1 µM
CSc1nc(Nc2cccc(O)c2)c2cnn(CC(Cl)c3ccccc3)c2n1 (centres unmarked) [Si322] |  |  |  |  |  |  |  |  | 0.15 |  | Ki (Recombinant human Src; read-out: Ki c-Src): 0.03 µM; Metabolic Stab. [1]: 98%; H2O Solubility (Water solubility assay): 4.3 µg/mL; Papp [2]: 5.92 10^−6 cm/sec
Nc1ncnc2c1c(-c1ccccc1)nn2CC(Cl)c1ccccc1 (centres unmarked) (as salt: hydrochloride) [Si244, 1-(2-Chloro-2-phenylethyl)-3-phenyl-1H-pyrazolo[3,4-d]pyrimidin-4-amine hydrochloride] |  |  |  |  |  |  |  |  |  | 129 to 132 | 
CCC(C)Sc1nc(NCCc2ccccc2)c2cnn(CC(Cl)c3ccccc3)c2n1 (centres unmarked) [Si147, 6-(Sec-butylthio)-1-(2-chloro-2-phenylethyl)-N-(2-phenylethyl)-1H-pyrazolo[3,4-d]pyrimidin-4-amine] |  |  |  |  |  |  |  |  |  | 97 to 98 | 
Clc1cccc(Nc2nc(SC3CCCC3)nc3c2cnn3CC(Cl)c2ccccc2)c1 (centres unmarked) |  |  |  |  |  |  |  |  | > 100 |  | Ki (Recombinant human Src): > 100 µM; Ki (recombinant Fyn): > 100 µM
CC(C)Sc1nc(Nc2cccc(O)c2)c2cnn(CC(Cl)c3ccccc3)c2n1 (centres unmarked) [Si323] |  |  |  |  |  |  |  |  | 0.12 |  | Ki (Recombinant human Src; read-out: Ki c-Src): 0.01 µM; Metabolic Stab. [1]: 95%; H2O Solubility (Water solubility assay): 0.9 µg/mL; Papp [2]: 4.53 10^−6 cm/sec
Cc1ccc(-c2nn(CC(C)c3ccccc3)c3ncnc(N)c23)cc1 (centres unmarked) [Si338, 3-(4-Methylphenyl)-1-(2-phenylpropyl)-1H-pyrazolo[3,4-d]pyrimidin-4-amine] |  |  |  |  |  |  |  |  |  | 152 to 155 | decreased Fyn activity on substitution of chlorine by methyl in N1 side chain (recombinant Fyn; Si312 vs Si244, Si337 vs Si308, Si338 vs Si309): about 10 fold; Ki (recombinant Fyn; read-out: Ki Fyn): 0.995 µM
CC(Cn1nc(-c2ccccc2)c2c(N)ncnc21)c1ccccc1 (centres unmarked) [Si312, 3-Phenyl-1-(2-phenylpropyl)-1H-pyrazolo[3,4-d]pyrimidin-4-amine] |  |  |  |  |  |  |  |  |  | 105 to 109 | decreased Fyn activity on substitution of chlorine by methyl in N1 side chain (recombinant Fyn): about 10 fold
Oc1cccc(Nc2nc(SC3CCCC3)nc3c2cnn3CC(Cl)c2ccccc2)c1 (centres unmarked) [Si330] |  |  |  |  |  |  |  |  | 0.15 |  | Ki (Recombinant human Src; read-out: Ki c-Src): 0.007 µM; Metabolic Stab. [1]: 91%; H2O Solubility (Water solubility assay): 0.6 µg/mL; Papp [2]: 3.91 10^−6 cm/sec
CC(=O)c1ccc(-c2nn(CC(C)c3ccccc3)c3ncnc(N)c23)cc1 (centres unmarked) [Si336, 1-{4-[4-Amino-1-(2-phenylpropyl)-1H-pyrazolo[3,4-d]pyrimidin-3-yl]phenyl}ethanone] |  |  |  |  |  |  |  |  |  | 232 to 235 | 
Nc1ncnc2c1c(-c1ccc(F)cc1)nn2CC(Cl)c1ccccc1 (centres unmarked) [Si310, 1-(2-Chloro-2-phenylethyl)-3-(4-fluorophenyl)-1H-pyrazolo[3,4-d]pyrimidin-4-amine] |  |  |  |  |  |  |  |  |  | 203 to 206 | IC50 (K562 cells): 12.6 ± 14.8 µM; Ki (recombinant Fyn; read-out: Enzymatic Data (Ki, μM) Fyn): 0.36 µM

Continued, in another order:

PAMPA BBB (MR %) (PAMPA, BBB permeability) | Papp at 5 h, 0.5 mM (PAMPA, BBB permeability) [×10⁻⁶ cm/s] | solubility at 24 h (Water solubility assay) [µM] | solubility thermodynamic at 24 h (Water solubility assay) [µg/mL] | half-life at 500 μM [3, 6] [h] | half-life at 500 μM [3, 7] [h] | PAMPA GI (MR %) [2] | Papp at 5 h, 0.5 mM [2] [×10⁻⁶ cm/s] | SMILES | Ki (Recombinant human Abl) [µM] | melting point [°C] | also measured
(47.0) % | 4.14 | 7.08 (≈ 4.25 µg/mL) | 4.22 (≈ 7.03 µM) | > 48 | > 48 | (44.7) % | 4.95 | CSc1nc(N(C(=O)OCCN2CCN(C)CC2)c2cccc(Cl)c2)c2cnn(CC(Cl)c3ccccc3)c2n1 (centres unmarked) [proSi83, 2-(4-Methylpiperazin-1-yl)ethyl (1-(2-chloro-2-phenylethyl)-6-(methylthio)-1H-pyrazolo[3,4-d]pyrimidin-4-yl)(3-chlorophenyl)carbamate] |  |  | half-life at 100 μM [4, 8]: 3.28 h
(91.4) % | 0.93 | 3.02 (≈ 1.97 µg/mL) | 1.96 (≈ 3 µM) | > 48 | > 48 | (88.1) % | 1.45 | CCC(CN1CCN(C)CC1)OC(=O)N(c1cccc(Br)c1)c1nc(SC)nc2c1cnn2CC(C)c1ccccc1 (centres unmarked) [proSi278 (C), 1-(4-Methylpiperazin-1-yl)butan-2-yl (3-bromophenyl)(6-(methylthio)-1-(2-phenylpropyl)-1H-pyrazolo[3,4-d]pyrimidin-4-yl)carbamate] |  |  | Stability Human Plasma t1/2 ([4]; 37° C.): 11.31 h; half-life at 100 μM [4, 9]: 11.3 h
(49.7) % | 4.3 | 11.2 (≈ 6.35 µg/mL) | 6.32 (≈ 11.2 µM) | > 48 | > 48 | (63.1) % | 4.69 | CSc1nc(N(C(=O)OCCN2CCN(C)CC2)c2cccc(Cl)c2)c2cnn(CCc3ccccc3)c2n1 [proSi214, 2-(4-Methylpiperazin-1-yl)ethyl (3-chlorophenyl)(6-(methylthio)-1-phenethyl-1H-pyrazolo[3,4-d]pyrimidin-4-yl)carbamate] |  |  | half-life at 100 μM [4, 8]: 3.67 h
(88.8) % | 0.01 | 182 (≈ 108 µg/mL) | 107 (≈ 180 µM) | > 48 | > 48 | (86.1) % | 0.85 | CSc1nc(N(CCc2ccccc2)C(=O)OCCN2CCN(C)CC2)c2cnn(CC(Cl)c3ccccc3)c2n1 (centres unmarked) [proSi35, 2-(4-methylpiperazin-1-yl)ethyl (1-(2-chloro-2-phenylethyl)-6-(methylthio)-1H-pyrazolo[3,4-d]pyrimidin-4-yl)(phenethyl)carbamate] |  |  | half-life at 100 μM [4, 8]: 35.3 h
(70.6) % | 2.39 | 5.37 (≈ 3.43 µg/mL) | 3.4 (≈ 5.32 µM) | > 48 | > 48 | (73.3) % | 2.15 | CSc1nc(N(C(=O)OC(C)CN2CCN(C)CC2)c2cccc(Br)c2)c2cnn(CC(C)c3ccccc3)c2n1 (centres unmarked) [proSi278 (B), 1-(4-Methylpiperazin-1-yl)propan-2-yl (3-bromophenyl)(6-(methylthio)-1-(2-phenylpropyl)-1H-pyrazolo[3,4-d]pyrimidin-4-yl)carbamate] |  |  | Stability Human Plasma t1/2 ([4]; 37° C.): 10.40 h; half-life at 100 μM [4, 9]: 10.4 h
(45.6) % | 5.01 | 35.5 (≈ 18.9 µg/mL) | 18.8 (≈ 35.2 µM) | > 48 | > 48 | (40.1) % | 6.7 | CN1CCN(CCOC(=O)N(Cc2ccccc2)c2ncnc3c2cnn3CC(Cl)c2ccccc2)CC1 (centres unmarked) [proS13, 2-(4-Methylpiperazin-1-yl)ethyl benzyl(1-(2-chloro-2-phenylethyl)-1H-pyrazolo[3,4-d]pyrimidin-4-yl)carbamate] |  |  | Metabolic Stab. % ([1]; percentage of unmodified drug, Table 8): 86.4%; half-life at 100 μM [4, 8]: > 48 h
